For this assay, the system named is fat pad-derived MSCs. As to the kind of experiment: MSC migration in Boyden chamber plates. The following applies: MSCs isolated from the fat pad of the joint; preliminary. The assay is classed as cell-based. As for the experimental part: To determine if there are inherent differences in the migratory activity of the different MSC populations, migration in response to serum is first evaluated using 96-well Boyden chamber plates. To simulate OA conditions, MSC migration is evaluated in response to IL-1β (10 ng/mL and 50 ng/mL), conditioned medium from the established OA cartilage explants, and conditioned medium from normal explants. Results from each group are compared with a positive control of media with 10% serum to determine if the experimental conditions increase or decrease migration of MSCs.
The response of MSCs to chondroinductive agents is evaluated, specifically platelet-derived growth factor (PDGF-BB) and kartogenin (KGN), which were selected based on their pleiotropic effects on promoting both migration and chondrogenesis of MSCs without adverse effects in the OA joint. PDGF-BB exerts chemotactic effects on bone marrow-derived MSCs, and facilitates new cartilage formation in the presence of IL-1β (Montaseri, A., et al. PloS one 6:e28663 (2011)). […] Kartogenin has been implicated in stimulating MSC recruitment in vivo, however, there are no reported migration studies with KGN, and therefore, the underlying mechanism for KGN-mediated recruitment is largely unknown. […]

Regarding “IL-1β: predominant pro-inflammatory cytokine in OA”, the MSC migration result is given as “may indeed inhibit migration”.

The values above are taken from US10993919B2, “Chondroprotective nanoparticles for the treatment of osteoarthritis” (University of Florida Research Foundation, Inc., priority 2016, dated 2021).
